# Assay results: patent US6660762B2, “Methods and compositions to treat lung diseases” (priority 2001, dated 2003)
# “Also recorded” adds a separate entry of the source. Where two headings read alike, the source gives them in different places. Marks after values point to notes of the source that are not given here.
# What was measured:
# C3H/HEJ mice = assay: Toxicity of aerosolized porphyrins in mice (group bodyweight); format: in vivo
# From the text: Toxicity of the three porphyrins were studied. Porphyrins were delivered via aerosols into mice. It is considered that beryllium-lung burdened mice will provide in vivo data for the removal of beryllium via urinary secretion tests.
# Aqueous solutions of the three porphyrins were aerosolized using a constant-flow Pulmo-Mist pump and nebulizer syste and delivered into cages each housing five female 20+ week old C3H/HEJ mice over a period of twenty days. The group bodyweights of these mice were measured each morning prior to aerosol treatment. Regimens included multiple, constant dosing and dose escalation. Mice in cages receiving multiple doses of 9 mg of one of the select porphyrins began to lose weight (up to 14%) by the third day of treatment. […] Treatments with two porphyrins generally reflected lower and delayed evidence of toxicity compared to that observed with one of the select porphyrins (phthalocyanine tetrasulfonate porphyrin, meso-tetra (4-carboxyphenyl) porphyrin, meso-tetra (4-sulfonatophenyl) porphyrin). Younger mice (about 6 weeks old) were generally more tolerant than older mice, but the rank order of porphyrin toxicity was the same.
# [1] = biological target: T1, Beryllium bound to oxyhemoglobin (Be—Hb) (Homo sapiens, UniProt P68871+P69905); assay: Chelation of hemoglobin bound beryllium by porphyrins (removal of beryllium from Be-Hb); format: binding; details: for effect on amount of beryllium associated with hemoglobin (in words): incubation of Be-Hb with porphyrin
# T1 construct: purchased Sigma H7379
# Method: Beryllium bound to oxyhemoglobin (Be—Hb) was prepared as described in Section 2.1 (above). To determine if the test porphyrins were able to remove beryllium from hemoglobin, porphyrins were added to the hemoglobin solution at 2.5 times the Be concentration of the solution. One hundred μl of 7.1 mM porphyrin solution (or 100 μl of HBS for controls) was added to 1 ml of […]. This mixture was incubated at 37° C. for 30 minutes. Following incubation, the entire mixture was loaded into a Centricon YM-30 molecular weight cutoff filter. This filter retains molecules with a molecular weight >30,000 (i.e., hemoglobin) and allows smaller molecules (i.e. porphyrin, free beryllium) to pass through. The samples were centrifuged to concentrate hemoglobin on the filter and then washed with 500 μl of HBS to remove any porphyrin or beryllium trapped in the hemoglobin concentrate. Hemoglobin concentrates were collected in 100 μl of HBS according to the manufacturer's instructions. The concentrates were then diluted to 3 mls with HBS. Hemoglobin concentration of each sample was determined spectrophotometrically with Drabkin's reagent. Beryllium content of each sample was determined by ICP-AAS.
# [2] = Binding of beryllium to porphyrins by proton NMR in deuterium oxide; details: no buffer
# Method: Initial experiments utilized HBS prepared in deuterium oxide (deuterated water, D2O) to eliminate the protons of water. This was not successful as the HEPES in the buffer also contains protons that interfered with the analysis. Therefore, experiments were conducted with porphyrins 1-5 dissolved in deuterium oxide. Porphyrins were analyzed in the presence and absence of beryllium-Spectra were collected on a 500 MHz JEOL.
# Human hemoglobin = biological target: T2, Human hemoglobin (Homo sapiens, UniProt P68871+P69905); assay: Binding of beryllium to various hemoglobins (Sephadex G-25 separation, ICP-AAS); details: incubation at 37° C. for 30 minutes; Be:Hb 2.5:1
# T2 construct: purchased Sigma H7379
# Method: These experiments used beryllium nitrate (Aldrich 46,503-8) as a soluble form of beryllium. […] This precipitate was probably an insoluble beryllium phosphate complex. Due to the insolubility of beryllium in PBS at necessary concentrations, experiments were carried out in N-2hydroxyethylpiperazine-N′-2-ethane-sulfonic acid (HEPES)-buffered saline (HBS). HEPES is commonly used as a buffer for biochemical experiments in the physiological pH range. HBS contained 10 mM HEPES, sodium chloride, and potassium chloride, pH 7.4.
# Human hemoglobin (Sigma H7379) was dissolved in HBS at a concentration of 40 mg/ml. This hemoglobin was >95% methemoglobin. To reduce the iron and form oxyhemoglobin, 5 mM sodium hydrosulfite was added to the hemoglobin solution. This solution was then dialyzed overnight at 4° C. against HBS to remove residual sodium hydrosulfite. To form carboxyhemoglobin, oxyhemoglobin was gently bubbled with carbon monoxide for 5 minutes. Identity of hemoglobins was confirmed by spectrophotometry prior to experimentation.
# Beryllium nitrate was added to a solution of hemoglobin at a molar ratio of 2.5:1 (B e: Hb). This mixture was incubated at 37° C. for 30 minutes. During incubation with beryllium some precipitation of hemoglobin occurred. Precipitate was removed from the samples by centrifugation. Samples of hemoglobin with no beryllium were used as negative controls. Experiments were performed on oxy-, met-, and carboxyhemoglobin.
# To isolate beryllium bound to hemoglobin (Be—Hb) from free beryllium, samples were passed through a 1 cm×25 cm Sephadex G-25 column equilibrated in HBS. One milliliter fractions of column eluate were collected. These fractions were diluted to 5 ml with distilled water. The hemoglobin content of each fraction was determined by use of Drabkin's reagent. Beryllium content of each fraction was determined by inductively coupled plasma atomic absorption spectrophotometry (ICP-AAS). A flow chart of this procedure is presented as FIG. 1.
# T1 sequence (P69905 2-142 limits assumed): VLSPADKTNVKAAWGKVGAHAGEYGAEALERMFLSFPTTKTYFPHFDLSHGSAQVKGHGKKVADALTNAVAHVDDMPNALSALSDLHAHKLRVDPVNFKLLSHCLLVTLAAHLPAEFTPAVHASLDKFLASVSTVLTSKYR
# T1 sequence (P68871 2-147 limits assumed): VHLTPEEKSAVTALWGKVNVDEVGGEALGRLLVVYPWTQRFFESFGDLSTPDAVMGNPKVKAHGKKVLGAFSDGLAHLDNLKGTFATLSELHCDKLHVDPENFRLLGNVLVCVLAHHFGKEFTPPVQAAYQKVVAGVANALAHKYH
# T2 sequence (P69905 2-142 limits assumed): as the sequence (P69905 2-142 limits assumed) above
# T2 sequence (P68871 2-147 limits assumed): as the sequence (P68871 2-147 limits assumed) above
Compound,toxicity / safety of aerosol delivery to lungs (in words) (C3H/HEJ mice),effect on amount of beryllium associated with hemoglobin (in words) [1],Molar ratio (moles Be:moles Hb) Mean (Human hemoglobin),μg beryllium/mg hemoglobin Mean (Human hemoglobin),further results
"O=S(=O)(O)c1ccc(-c2c3nc(c(-c4ccc(S(=O)(=O)O)cc4)c4ccc([nH]4)c(-c4ccc(S(=O)(=O)O)cc4)c4nc(c(-c5ccc(S(=O)(=O)O)cc5)c5ccc2[nH]5)C=C4)C=C3)cc1 [porphyrin 4, meso-tetra (4-sulfonatophenyl) porphyrin]",maybe safely delivered as aerosols,reduced the amount of beryllium associated with hemoglobin,–,–,toxicity / safety of aerosol delivery to lungs (in words) (C3H/HEJ mice; listed as meso-tetra-(4-sulfonate phenyl)): non-toxic
phthalocyanine tetrasulfonate [porphyrin 3],maybe safely delivered as aerosols,reduced the amount of beryllium associated with hemoglobin,–,–,"reduction of the amount of beryllium associated with hemoglobin ([1]; molar excess of porphyrin, 30 minutes at 37° C.): 59%; change in proton NMR spectra on addition of beryllium [2]: suggest a reaction of beryllium with the porphyrin"
magnesium phthalocyanine tetrasulfonate tetra sodium salt porphyrin [porphyrin 5],–,reduced the amount of beryllium associated with hemoglobin,–,–,change in proton NMR spectra on addition of beryllium [2]: suggest a reaction of beryllium with the porphyrin
"O=C(O)c1ccc(-c2c3nc(c(-c4ccc(C(=O)O)cc4)c4ccc([nH]4)c(-c4ccc(C(=O)O)cc4)c4nc(c(-c5ccc(C(=O)O)cc5)c5ccc2[nH]5)C=C4)C=C3)cc1 [porphyrin 2, meso-tetra (4-carboxyphenyl) porphyrin]",maybe safely delivered as aerosols; also recorded: non-toxic,reduced the amount of beryllium associated with hemoglobin,–,–,–
"Methemoglobin: Human hemoglobin (Sigma H7379), >95% methemoglobin, iron in the +III oxidation state",–,–,0.13a moles Be:moles Hb,0.016^a μg beryllium/mg hemoglobin,–
hemin [porphyrin 1],–,reduced the amount of beryllium associated with hemoglobin,–,–,–
Carboxyhemoglobin: oxyhemoglobin gently bubbled with carbon monoxide for 5 minutes,–,–,1.88 moles Be:moles Hb,0.351 μg beryllium/mg hemoglobin,–
"Oxyhemoglobin: Human hemoglobin reduced with sodium hydrosulfite, iron in the +II oxidation state",–,–,2.25 moles Be:moles Hb,0.438 μg beryllium/mg hemoglobin,–
